In patent US9422265B2, “Process for the preparation of 3-(3-chloro-1H-pyrazol-1-yl)pyridine” (Dow AgroSciences LLC, priority 2014, dated 2016):

Legend:
[1] = tested on: Green Peach Aphid (Myzus persicae) (MYZUPE); assay: Bioassay on Green Peach Aphid (GPA), cabbage seedling foliar spray; type: in vivo; details: 72 h, 200 ppm spray on cabbage seedlings, graded after three days, live aphids, Abbott's correction, read-out: MYZUPE rating (% Control of Mortality)
Procedure: Example A Bioassays on Green Peach Aphid (“GPA”) (Myzus persicae) (MYZUPE.)
Several molecules disclosed herein were tested against GPA using procedures described below.
Cabbage seedling grown in 3-in pots, with 2-3 small (3-5 cm) true leaves, were used as test substrate. The seedlings were infested with […] (wingless adult and nymph stages) one day prior to chemical application. Four posts with individual seedlings were used for each treatment. Test compounds (2 mg) were dissolved in 2 mL of acetone/methanol (1:1) solvent, forming stock solutions of 1000 ppm test compound. The stock solutions were diluted 5× with 0.025% Tween 20 in water to obtain the solution at 200 ppm test compound. A hand-held aspirator-type sprayer was used for spraying a solution to both sides of the cabbage leaves until runoff. Reference plants (solvent check) were sprayed with the diluent only containing 20% by volume acetone/methanol (1:1) solvent. Treated plants were held in a holding room for three days at approximately 25° C. and ambient relative humidity (RH) prior to grading. Evaluation was conducted by counting the number of live aphids per plant under a microscope. Percent Control was measured by using Abbott's correction formula (W. S. Abbott, “A Method of Computing the Effectiveness of an Insecticide” J. Econ. Entomol 18 (1925), pp. 265-267) as follows. […]

[2] = tested on: Sweetpotato Whitefly Crawler (Bemisia tabaci) (BEMITA); assay: Bioassay on Sweetpotato Whitefly Crawler, cotton plant foliar spray; type: in vivo; details: 200 ppm spray on cotton plants, graded after 8-9 days, live nymphs, Abbott's correction, read-out: BEMITA rating (% Control of Mortality)
From the text: Example B Bioassays on Sweetpotato Whitefly Crawler (Bemisia tabaci) (BEMITA.)
Cotton plants grown in 3-inch pots, with 1 small (3-5 cm) true leaf, were used at test substrate. The plants were placed in a room with whitefly adults. Adults were allowed to deposit eggs for 2-3 days. After a 2-3 day egg-laying period, plants were taken from the adult whitefly room. Adults were blown off leaves using a hand-held Devilbliss sprayer (23 psi). Plants with egg infestation (100-300 eggs per plant) were placed in a holding room for 5-6 days at 82° F. and 50% RH for egg hatch and crawler stage to develop. Four cotton plants were used for each treatment. Compounds (2 mg) were dissolved in 1 mL of acetone solvent, forming stock solutions of 2000 ppm. The stock solutions were diluted 10× with 0.025% Tween 20 in water to obtain a test solution at 200 ppm. A hand-held Devilbliss sprayer was used for spraying a solution to both sides of cotton leaf until runoff. Reference plants (solvent check) were sprayed with the diluent only. Treated plants were held in a holding room for 8-9 days at approximately 82° F. and 50% RH prior to grading. Evaluation was conducted by counting the number of live nymphs per plant under a microscope.

Row | Structure (SMILES) | mortality at 200 ppm [1] | mortality at 200 ppm [2]
1 | CCN(C(=O)CCSCCC(F)(F)F)c1cn(-c2cccnc2)nc1Cl [Compound 2-11, N-(3-chloro-1-(pyridin-3-yl)-1H-pyrazol-4-yl)-N-ethyl-3-((3,3,3-trifluoropropyl)thio)propanamide] | 80 to 100% | 80 to 100%
2 | CCN(C(=O)CC[S+]([O-])CCC(F)(F)F)c1cn(-c2cccnc2)nc1Cl (stereo not shown) [Compound 2-12, N-(3-chloro-1-(pyridin-3-yl)-1H-pyrazol-4-yl)-N-ethyl-3-((3,3,3-trifluoropropyl)sulfoxo)propanamide] | 80 to 100% | 80 to 100%
